Source: patent publication US10683334B2 (INDIANA UNIVERSITY RESEARCH AND TECHNOLOGY CORPORATION, priority 2016, dated 2020)
Square brackets hold non-standard residues; d marks the D form. Peptide text beside a SMILES is read from it. 3Pal = N[C@@H](Cc1cccnc1)C(=O)O; Aib = CC(C)(N)C(=O)O

Legend:
physchem = details: for solubility at 1 h: pH 7.4
Protocol: 1 or 5 mg of pre-lyophilized peptide in 2 mL Eppendorf tube was treated with 200-400 uL of phosphate buffer (PBS: 50 mM sodium phosphate, 150 mM of sodium chloride, pH7.4). Samples were then vortexed and sonicated for 10 min then equilibrated at RT for 1H, and then centrifuged at 10 krpms for 10 min Concentration of the peptides in obtained supernatant was determined by measuring UV absorbance at λ=280 nm. […] Concentration in aliquots was reassessed as previously with UV absorbance. Change in peptide concentration was evaluated after 48 h and 7 days of storage at 4° C.

glucagon receptor = glucagon receptor (Homo sapiens, UniProt P47871); assay: Luciferase-based glucagon assay (cAMP reporter, HEK293 cells); details: for EC50: read-out: EC50 [nM] (SDV), SDV in brackets; for EC50 / in vitro efficacy / potency (in words): luciferase-based glucagon assay; for % bioactivity of GCG: relative to native glucagon
Chain of glucagon receptor (P47871 26-477): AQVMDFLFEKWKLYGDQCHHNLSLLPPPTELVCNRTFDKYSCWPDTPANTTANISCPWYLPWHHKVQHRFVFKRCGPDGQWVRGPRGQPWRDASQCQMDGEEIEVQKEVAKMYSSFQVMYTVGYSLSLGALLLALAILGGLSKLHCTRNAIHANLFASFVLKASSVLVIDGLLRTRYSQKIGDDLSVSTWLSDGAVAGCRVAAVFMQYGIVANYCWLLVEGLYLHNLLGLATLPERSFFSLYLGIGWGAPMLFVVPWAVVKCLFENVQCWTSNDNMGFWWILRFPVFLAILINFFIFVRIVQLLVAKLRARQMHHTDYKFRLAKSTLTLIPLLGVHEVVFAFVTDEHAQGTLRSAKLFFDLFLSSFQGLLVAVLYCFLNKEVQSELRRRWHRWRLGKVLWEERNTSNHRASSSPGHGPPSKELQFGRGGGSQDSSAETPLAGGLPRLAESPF
Protocol: At the end of the incubation 100 microliters of LucLite luminescence substrate reagent (Perkin-Elmer, Wellesley, Mass.) were added to each well. […] The luminescent light output indicates activation of the luciferase reporter gene, which in turn is a measure of the activation of the receptor.

| Compound | solubility at 1 h (physchem) [µg/mL] | EC50 (glucagon receptor) [nM] | % bioactivity of GCG (glucagon receptor) [%] | solubility (physchem; pH 7) [µg/mL] | in vitro efficacy / potency (in words) (glucagon receptor) |
| --- | --- | --- | --- | --- | --- |
| CSCC[C@H](NC(=O)[C@H](CC(C)C)NC(=O)[C@H](Cc1c[nH]c2ccccc12)NC(=O)[C@H](CCC(N)=O)NC(=O)[C@@H](NC(=O)[C@H](Cc1ccccc1)NC(=O)[C@H](CC(=O)O)NC(=O)[C@H](CCC(N)=O)NC(=O)[C@H](C)NC(=O)[C@H](CCCNC(=N)N)NC(=O)[C@H](CCCNC(=N)N)NC(=O)C(C)(C)NC(=O)[C@H](CC(=O)O)NC(=O)[C@H](CC(C)C)NC(=O)[C@H](Cc1ccc(O)cc1)NC(=O)[C@H](CCCCN)NC(=O)[C@H](CO)NC(=O)[C@H](Cc1ccc(O)cc1)NC(=O)[C@H](CC(=O)O)NC(=O)[C@H](CO)NC(=O)[C@@H](NC(=O)[C@H](Cc1cccnc1)NC(=O)[C@@H](NC(=O)CNC(=O)[C@H](CCC(N)=O)NC(=O)[C@H](CO)NC(=O)[C@@H](N)Cc1c[nH]cn1)[C@@H](C)O)[C@@H](C)O)C(C)C)C(=O)N[C@@H](CC(N)=O)C(=O)N[C@H](C(=O)O)[C@@H](C)O [Compound 3, HSQGTXTSDYSKYLDZRRAQDFVQWLMNT] | > 1000 | 0.017 | 119 |  |  |
| CSCC[C@H](NC(=O)[C@H](CC(C)C)NC(=O)[C@H](Cc1c[nH]c2ccccc12)NC(=O)[C@H](CCC(N)=O)NC(=O)[C@@H](NC(=O)[C@H](Cc1ccccc1)NC(=O)[C@H](CC(=O)O)NC(=O)[C@H](CCC(N)=O)NC(=O)[C@H](C)NC(=O)[C@H](CCCNC(=N)N)NC(=O)[C@H](CCCNC(=N)N)NC(=O)C(C)(C)NC(=O)[C@H](CC(=O)O)NC(=O)[C@H](CC(C)C)NC(=O)[C@H](Cc1ccncc1)NC(=O)[C@H](CCCCN)NC(=O)[C@H](CO)NC(=O)[C@H](Cc1ccc(O)cc1)NC(=O)[C@H](CC(=O)O)NC(=O)[C@H](CO)NC(=O)[C@@H](NC(=O)[C@H](Cc1ccccc1)NC(=O)[C@@H](NC(=O)CNC(=O)[C@H](CCC(N)=O)NC(=O)[C@H](CO)NC(=O)[C@@H](N)Cc1c[nH]cn1)[C@@H](C)O)[C@@H](C)O)C(C)C)C(=O)N[C@@H](CC(N)=O)C(=O)N[C@H](C(=O)O)[C@@H](C)O [Compound 6, HSQGTFTSDYSKULDZRRAQDFVQWLMNT] | > 1000 | 0.0339 | 60 |  |  |
| CSCC[C@H](NC(=O)[C@H](CC(C)C)NC(=O)[C@H](Cc1c[nH]c2ccccc12)NC(=O)[C@H](CCC(N)=O)NC(=O)[C@@H](NC(=O)[C@H](Cc1ccccc1)NC(=O)[C@H](CC(=O)O)NC(=O)[C@H](CCC(N)=O)NC(=O)[C@H](C)NC(=O)[C@H](CCCNC(=N)N)NC(=O)[C@H](CCCNC(=N)N)NC(=O)C(C)(C)NC(=O)[C@H](CC(=O)O)NC(=O)[C@H](CC(C)C)NC(=O)[C@H](Cc1ccncc1)NC(=O)[C@H](CCCCN)NC(=O)[C@H](CO)NC(=O)[C@H](Cc1ccncc1)NC(=O)[C@H](CC(=O)O)NC(=O)[C@H](CO)NC(=O)[C@@H](NC(=O)[C@H](Cc1ccccc1)NC(=O)[C@@H](NC(=O)CNC(=O)[C@H](CCC(N)=O)NC(=O)[C@H](CO)NC(=O)[C@@H](N)Cc1c[nH]cn1)[C@@H](C)O)[C@@H](C)O)C(C)C)C(=O)N[C@@H](CC(N)=O)C(=O)N[C@H](C(=O)O)[C@@H](C)O [Compound 8, HSQGTFTSDUSKULDZRRAQDFVQWLMNT] | > 10000 | 0.0309 | 66 |  |  |
| CSCC[C@H](NC(=O)[C@H](CC(C)C)NC(=O)[C@H](Cc1c[nH]c2ccccc12)NC(=O)[C@H](CCC(N)=O)NC(=O)[C@@H](NC(=O)[C@H](Cc1ccccc1)NC(=O)[C@H](CC(=O)O)NC(=O)[C@H](CCC(N)=O)NC(=O)[C@H](C)NC(=O)[C@H](CCCNC(=N)N)NC(=O)[C@H](CCCNC(=N)N)NC(=O)C(C)(C)NC(=O)[C@H](CC(=O)O)NC(=O)[C@H](CC(C)C)NC(=O)[C@H](Cc1ccc(O)cc1)NC(=O)[C@H](CCCCN)NC(=O)[C@H](CO)NC(=O)[C@H](Cc1cccnc1)NC(=O)[C@H](CC(=O)O)NC(=O)[C@H](CO)NC(=O)[C@@H](NC(=O)[C@H](Cc1ccccc1)NC(=O)[C@@H](NC(=O)CNC(=O)[C@H](CCC(N)=O)NC(=O)[C@H](CO)NC(=O)[C@@H](N)Cc1c[nH]cn1)[C@@H](C)O)[C@@H](C)O)C(C)C)C(=O)N[C@@H](CC(N)=O)C(=O)N[C@H](C(=O)O)[C@@H](C)O [Compound 4, HSQGTFTSDXSKYLDZRRAQDFVQWLMNT] | > 1000 | 0.0268 | 76 |  |  |
| CSCC[C@H](NC(=O)[C@H](CC(C)C)NC(=O)[C@H](Cc1c[nH]c2ccccc12)NC(=O)[C@H](CCC(N)=O)NC(=O)[C@@H](NC(=O)[C@H](Cc1ccccc1)NC(=O)[C@H](CC(=O)O)NC(=O)[C@H](CCC(N)=O)NC(=O)[C@H](C)NC(=O)[C@H](CCCNC(=N)N)NC(=O)[C@H](CCCNC(=N)N)NC(=O)C(C)(C)NC(=O)[C@H](CC(=O)O)NC(=O)[C@H](CC(C)C)NC(=O)[C@H](Cc1cccnc1)NC(=O)[C@H](CCCCN)NC(=O)[C@H](CO)NC(=O)[C@H](Cc1cccnc1)NC(=O)[C@H](CC(=O)O)NC(=O)[C@H](CO)NC(=O)[C@@H](NC(=O)[C@H](Cc1ccccc1)NC(=O)[C@@H](NC(=O)CNC(=O)[C@H](CCC(N)=O)NC(=O)[C@H](CO)NC(=O)[C@@H](N)Cc1c[nH]cn1)[C@@H](C)O)[C@@H](C)O)C(C)C)C(=O)N[C@@H](CC(N)=O)C(=O)N[C@H](C(=O)O)[C@@H](C)O [Compound 7, HSQGTFTSDXSKXLDZRRAQDFVQWLMNT] | > 10000 | 0.0359 | 57 | > 10000 | fully potent |
| CSCC[C@H](NC(=O)[C@H](CC(C)C)NC(=O)[C@H](Cc1c[nH]c2ccccc12)NC(=O)[C@H](CCC(N)=O)NC(=O)[C@@H](NC(=O)[C@H](Cc1ccccc1)NC(=O)[C@H](CC(=O)O)NC(=O)[C@H](CCC(N)=O)NC(=O)[C@H](C)NC(=O)[C@H](CCCNC(=N)N)NC(=O)[C@H](CCCNC(=N)N)NC(=O)C(C)(C)NC(=O)[C@H](CC(=O)O)NC(=O)[C@H](CC(C)C)NC(=O)[C@H](Cc1ccncc1)NC(=O)[C@H](CCCCN)NC(=O)[C@H](CO)NC(=O)[C@H](Cc1ccncc1)NC(=O)[C@H](CC(=O)O)NC(=O)[C@H](CO)NC(=O)[C@@H](NC(=O)[C@H](Cc1ccncc1)NC(=O)[C@@H](NC(=O)CNC(=O)[C@H](CCC(N)=O)NC(=O)[C@H](CO)NC(=O)[C@@H](N)Cc1c[nH]cn1)[C@@H](C)O)[C@@H](C)O)C(C)C)C(=O)N[C@@H](CC(N)=O)C(=O)N[C@H](C(=O)O)[C@@H](C)O [Compound 10, HSQGTUTSDUSKULDZRRAQDFVQWLMNT] | > 10000 | 0.0843 | 24 |  |  |
| CSCC[C@H](NC(=O)[C@H](CC(C)C)NC(=O)[C@H](Cc1c[nH]c2ccccc12)NC(=O)[C@H](CCC(N)=O)NC(=O)[C@@H](NC(=O)[C@H](Cc1cccnc1)NC(=O)[C@H](CC(=O)O)NC(=O)[C@H](CCC(N)=O)NC(=O)[C@H](C)NC(=O)[C@H](CCCNC(=N)N)NC(=O)[C@H](CCCNC(=N)N)NC(=O)C(C)(C)NC(=O)[C@H](CC(=O)O)NC(=O)[C@H](CC(C)C)NC(=O)[C@H](Cc1cccnc1)NC(=O)[C@H](CCCCN)NC(=O)[C@H](CO)NC(=O)[C@H](Cc1cccnc1)NC(=O)[C@H](CC(=O)O)NC(=O)[C@H](CO)NC(=O)[C@@H](NC(=O)[C@H](Cc1cccnc1)NC(=O)[C@@H](NC(=O)CNC(=O)[C@H](CCC(N)=O)NC(=O)[C@H](CO)NC(=O)[C@@H](N)Cc1cnc[nH]1)[C@@H](C)O)[C@@H](C)O)C(C)C)C(=O)N[C@@H](CC(N)=O)C(=O)N[C@H](C(=O)O)[C@@H](C)O [Compound 11, HSQGTXTSDXSKXLDZRRAQDXVQWLMNT] (H-HSQGT[3Pal]TSD[3Pal]SK[3Pal]LD[Aib]RRAQD[3Pal]VQWLMNT-OH) | > 10000 |  |  |  |  |
| CSCC[C@H](NC(=O)[C@H](CC(C)C)NC(=O)[C@H](Cc1c[nH]c2ccccc12)NC(=O)[C@H](CCC(N)=O)NC(=O)[C@@H](NC(=O)[C@H](Cc1ccccc1)NC(=O)[C@H](CC(=O)O)NC(=O)[C@H](CCC(N)=O)NC(=O)[C@H](C)NC(=O)[C@H](CCCNC(=N)N)NC(=O)[C@H](CCCNC(=N)N)NC(=O)C(C)(C)NC(=O)[C@H](CC(=O)O)NC(=O)[C@H](CC(C)C)NC(=O)[C@H](Cc1cccnc1)NC(=O)[C@H](CCCCN)NC(=O)[C@H](CO)NC(=O)[C@H](Cc1ccc(O)cc1)NC(=O)[C@H](CC(=O)O)NC(=O)[C@H](CO)NC(=O)[C@@H](NC(=O)[C@H](Cc1ccccc1)NC(=O)[C@@H](NC(=O)CNC(=O)[C@H](CCC(N)=O)NC(=O)[C@H](CO)NC(=O)[C@@H](N)Cc1c[nH]cn1)[C@@H](C)O)[C@@H](C)O)C(C)C)C(=O)N[C@@H](CC(N)=O)C(=O)N[C@H](C(=O)O)[C@@H](C)O [Compound 5, HSQGTFTSDYSKXLDZRRAQDFVQWLMNT] | > 1000 | 0.0379 | 54 |  |  |
| CSCC[C@H](NC(=O)[C@H](CC(C)C)NC(=O)[C@H](Cc1c[nH]c2ccccc12)NC(=O)[C@H](CCC(N)=O)NC(=O)[C@@H](NC(=O)[C@H](Cc1cccnc1)NC(=O)[C@H](CC(=O)O)NC(=O)[C@H](CCC(N)=O)NC(=O)[C@H](C)NC(=O)[C@H](CCCNC(=N)N)NC(=O)[C@H](CCCNC(=N)N)NC(=O)C(C)(C)NC(=O)[C@H](CC(=O)O)NC(=O)[C@H](CC(C)C)NC(=O)[C@H](Cc1cccnc1)NC(=O)[C@H](CCCCN)NC(=O)[C@H](CO)NC(=O)[C@H](Cc1cccnc1)NC(=O)[C@H](CC(=O)O)NC(=O)[C@H](CO)NC(=O)[C@@H](NC(=O)[C@H](Cc1cccnc1)NC(=O)[C@@H](NC(=O)CNC(=O)[C@H](CCC(N)=O)NC(=O)[C@H](CO)NC(=O)[C@@H](N)Cc1c[nH]cn1)[C@@H](C)O)[C@@H](C)O)C(C)C)C(=O)N[C@@H](CC(N)=O)C(=O)N[C@H](C(=O)O)[C@@H](C)O [Compound 11, HSQGTXTSDXSKXLDZRRAQDXVQWLMNT] (H-HSQGT[3Pal]TSD[3Pal]SK[3Pal]LD[Aib]RRAQD[3Pal]VQWLMNT-OH; N-terminus and C-terminus assumed) |  | 2.33 | 1 |  | lower potency |
